These results are taken from PubChem BioAssay (NCI).

Common to all, as to test: growth of human tumour cells (NCI), 48 h
Assay [1] concerns HL-60(TB) leukemia.
The subject of assay [2] is UACC-257 melanoma.
Assay [3] deals with UACC-62 melanoma.
Assay [4] has as its system NCI-H226 lung.
Assay [5] concerns OVCAR-3 ovarian.
The test system of assay [6] is ACHN renal.
For assay [7], the system named is SNB-19 CNS.
Assay [8] has as its system U251 CNS.
In assay [9] the test system is MALME-3M melanoma.
For assay [10], the system named is CCRF-CEM leukemia.
Assay [11] has as its system SK-MEL-28 melanoma.
For assay [12], the system named is A498 renal.
The subject of assay [13] is K-562 leukemia.
For assay [14], the system named is IGROV1 ovarian.
Assay [15] deals with 786-0 renal.
For assay [16], the system named is MOLT-4 leukemia.
The test system of assay [17] is OVCAR-5 ovarian.
The test system of assay [18] is SK-MEL-2 melanoma.

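Assay format: 96-well plates, 48-hour exposure. TGI: total growth inhibition.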 A value given as a limit tells only on which side of the number the result lay.

For the molecule `O=C(COC(=O)c1cccc2c(=O)c3ccccc3[nH]c12)Nc1ccc(Cl)cc1`, the TGI in [1], in [2], in assay [3], in [4], in [5] and in [6] was more than 100 µM each time. Besides, the TGI was more than 100 µM in assay [7]; more than 100 µM in assay [8]; more than 100 µM in assay [9]; more than 100 µM in assay [10]; more than 100 µM in [11]; 60 µM in assay [12]. In addition, the TGI in [13], in assay [14], in assay [15] and in [16] was more than 100 µM throughout.

Regarding `O=C(Nc1ccc([N+](=O)[O-])cc1[N+](=O)[O-])C(=O)C(C(=O)c1ccc(Cl)c(Cl)c1)C1OC(=O)c2ccccc21` (configuration not stated), the TGI in assay [1] came to 85.3 µM; in [2], 68.4 µM; in assay [17], 65.9 µM; in assay [3], 36 µM; in assay [4], 36 µM; in assay [5], 93.1 µM. For the same molecule, the TGI in assay [6] is more than 100 µM; in [7], 66.7 µM; in assay [8], more than 100 µM; in [9] it was more than 100 µM; in [10] it was 95 µM; in assay [12], 68.8 µM. The TGI in assay [13] came to 82 µM; in assay [14], 84.7 µM; in [15] it was 41.5 µM; in assay [16], 76.8 µM.

On to `O=C1NC2C3CC(OCc4ccccc4)(OCc4ccccc4)C2OC3O1` (configuration not stated), for which the TGI in [1], in assay [2], in assay [17], in assay [3], in assay [4] and in [5] was more than 50 µM each time. The TGI in assay [18], in [9], in assay [10], in assay [11], in assay [12] and in assay [13] was more than 50 µM each time. The TGI in assay [14], in assay [15] and in assay [16] was more than 50 µM in each case.

Consider `CCOC(=O)C(=O)Nc1c(C)cccc1C(C)(C)C`, for which the TGI in assay [2], in assay [17], in assay [3], in assay [4], in assay [5] and in [6] was more than 100 µM each time. In addition, the TGI in assay [7], in [8], in assay [18], in assay [9], in assay [11] and in [13] was more than 100 µM each time. For the same molecule, the TGI in assay [14], in assay [15] and in [16] was more than 100 µM throughout.

For `C=CC(=O)Nc1ccccc1CC(c1c[nH]c2ccccc12)c1c[nH]c2ccccc12`, the TGI in [2] worked out at 40.5 µM; in assay [3], 31.2 µM; in [4], 40.1 µM; in assay [5] it was 32.6 µM; in assay [7] it was 31.8 µM; in [18], 32.7 µM. For the same molecule, the TGI in assay [9] came to 33.3 µM; in [10] it was 54.2 µM; in [11] it was 32.1 µM; in assay [13], 49.2 µM; in [14] it was 36.6 µM; in assay [15], 36.2 µM. The molecule further gave a TGI in assay [16] of 46.4 µM.

Regarding `Cc1cc(Cl)ccc1N=C1NC(=O)C(CC(=O)Nc2cccc(C)c2C)S1` (configuration not stated), the TGI in assay [2] was more than 100 µM; in assay [17], more than 100 µM; in assay [3] it was 71.3 µM; in assay [5] it was more than 100 µM; in [6] it was 73.6 µM; in [7], 68.3 µM. For the same molecule, the TGI was 74.5 µM in assay [8]; 46.9 µM in assay [18]; 65.1 µM in [9]; more than 100 µM in assay [10]; more than 100 µM in [11]; 50.5 µM in assay [12]. The TGI in assay [13] was more than 100 µM; in assay [14], more than 100 µM; in assay [15], 47.9 µM; in assay [16], more than 100 µM.

On to `CC1(C2COC(=O)C2)SCCCS1` (configuration not stated), for which the TGI in assay [1], in assay [2], in [3], in assay [4], in [5] and in assay [6] was more than 100 µM in each case. For the same molecule, the TGI in [7], in [18], in assay [9], in [10], in assay [11] and in assay [14] was more than 100 µM each time. Moreover, the TGI in assay [15] and in assay [16] was more than 100 µM each time.

Turning to `COc1ccc(/C=N/N=C(\N)NO)cc1F`, the TGI in [1] was more than 100 µM; in assay [2] it was more than 100 µM; in assay [17], 97.2 µM; in [3], 36.3 µM; in assay [4], 41.4 µM; in assay [5], more than 100 µM. The TGI is 45.3 µM in [6]; more than 100 µM in assay [7]; more than 100 µM in [8]; more than 100 µM in assay [18]; more than 100 µM in assay [9]; more than 100 µM in assay [10]. Further, the TGI in assay [11] is more than 100 µM; in [13], 56.4 µM; in assay [14] it was more than 100 µM; in assay [15], 48.5 µM; in assay [16], more than 100 µM.
